# Reference: patent US9861606B2, “Therapeutic for treating inflammatory lung disorders” (University College Cardiff Consultants Limited, priority 2012, dated 2018)
# Where “and” joins values, the source holds several entries; their conditions need not be identical. Equal entries are not always repeated.
# Assays:
# BalbC mice [1] = assay: Polycation-induced bronchial hyper-reactivity (Penh, plethysmography) in methacholine-challenged conscious mice; type: in vivo, mouse; details: nebulised 3 μM; poly-L-arginine 3 μM; methacholine challenge
# Description: FIG. 5. […] prevent polycation-evoked BHR in methacholine-challenged mice. […] After the treatment, animals were placed in plethysmography chambers (Buxco, USA), allowed to settle for 10 minutes, and then they were challenged with methacholine (MCh, 0.1-10 mg/ml). Responses to methacholine obtained from the animals that have not received any treatments are shown in black symbols. From our previous estimates, 1-5% of the nebulised drug reaches the lung epithelium. […] FIG. 12. […] Male BalbC mice ( 25 g) were purchased from Harlan 1 week before the experimental protocols were performed. […] On the day of the experiment, the body weight of each mouse was recorded and mice were allowed to acclimatise to the chamber for at least 10 min before recordings were made. Then, respiratory activity was recorded for 5 min, to establish baseline value for Penh. […] Data were recorded for 3 minutes after each aerosol administration. The Penh values at each MCh concentration were averaged and expressed as a proportion of baseline Penh (Penh before treatment). […] The Penh values at each MCh concentration were averaged and expressed as a proportion of that day's baseline Penh (Penh after treatment). […] Effect of Polycations and of the Calcilytic NPS89636 on Bronchial Hyper-Reactivity in Unrestrained, Conscious Mice In Vivo Baseline airway hyper-responsiveness was measured by plethysmography. […]
# BalbC mice [2] = assay: Bronchial hyper-reactivity in ovalbumin-sensitised, ovalbumin-challenged mouse model of asthma; type: in vivo; details: nebulised 3 μM; methacholine up to and including 30 mg/ml
# Description: FIG. 13. The calcilytic, NPS89636, prevents ovalbumin-induced BHR in methacholine challenged mice. Mice were sensitised on days 0 and 5 by an i.p. injection of 100 microgram/mouse of ovalbumin (OVA) and 50 mg/mouse aluminium hydroxide in PBS. Fourteen days after the last injection, mice were challenged by inhalation of a 0.5% OVA aerosol in PBS twice on the same day, 4 h apart. Mice were treated with nebulised NPS89636 (3 micromolar) or vehicle (0.3% DMSO) one hour before and three hours after the last OVA exposure. Measurements of BHR following methacholine challenge were taken by plethysmography 24 hours before and after the last OVA inhalation challenge.
# Penh was recorded by plethysmography during methacholine challenge, as above (Penh before treatment). 24 hours later, the mice were challenged with 0.5% nebulised OVA (in PBS w/v) in the absence or presence of nebulised NPS89636 (or 0.3% DMSO vehicle) by inhalation. The time-course of this challenge protocol consisted of: […]
# Male BalbC mice (˜25 g) purchased from Harlan and allowed to acclimatise for 1 week prior to experiment. […] Thirteen days after the last injection, Penh was recorded by plethysmography during methacholine challenge, as described above (Penh before treatment). […]
# Bronchoalveolar lavage was performed using three times 1 ml of PBS and the BALF was collected for the quantification of inflammatory cells. […]
# [3] = Plasma ionised Ca2+ in BalbC mice after nebulised calcilytic treatment; type: in vivo, mouse
# Description: Table 1. […] At the end of the experiment, bloods were collected via opening the carotid artery. Bloods were allowed to clot for 2-3 hours and spun down at 3000 g for 10 min at 4° C. Collected samples were analysed for measurements of Ca^2+o (performed by the Biochemistry department, University Hospital of Wales). […] Accordingly, the treatment is not detrimental in mammals.
# [4] = Plasma ionised Ca2+ in guinea pigs after nebulised calcilytic treatment; type: in vivo, guinea pig
# Description: Table 2. […] Accordingly, the treatment is not detrimental in mammals.
# [5] = 24 hours after nebulised calcilytic, single animals, hydrochloride
compound,measurement,setting,value
"CCc1ccc(CC(C)(C)NCC(O)COc2cc(-c3ccc(C(=O)O)cc3)ccc2C#N)c(F)c1.Cl (stereo in doubt) [NPS89636, (S)-4′-cyano-3′-[3-[2-(4-ethyl-2-fluorophenyl)-1,1-dimethylethylamino]-2-hydroxy-propoxy]-biphenyl-4-carboxylic acid hydrochloride]",Effect on poly-L-arginine-induced increase in airway reactivity (Penh),BalbC mice [1],completely prevented
same,"Effect on methacholine-induced BHR in OVA-sensitised, OVA-challenged mice",BalbC mice [2],completely abolished
same,"Plasma ionised Ca++, Treatment (1 hour), individual animal","[3]; 1 hour after nebulised calcilytic, single animals, hydrochloride",0.69 mM/L and 0.88 mM/L and 0.95 mM/L
same,"Plasma ionised Ca++, Treatment (1 hour), Average","[3]; 1 hour, average of 3",0.84 mM/L
same,"Plasma ionised Ca++, Treatment (4 hours), individual animal","[3]; 4 hours after nebulised calcilytic, single animals, hydrochloride",0.98 mM/L and 0.94 mM/L and 0.96 mM/L
same,"Plasma ionised Ca++, Treatment (4 hours), Average","[3]; 4 hours, average of 3",0.96 mM/L
same,"Plasma ionised Ca++, Treatment (24 hours), individual animal",[3]; [5],1.09 mM/L and 1.1 mM/L and 0.93 mM/L
same,"Plasma ionised Ca++, Treatment (24 hours), Average","[3]; 24 hours, average of 3",1.04 mM/L
same,"Plasma ionised Ca++, Treatment (24 hours), individual animal",[4]; [5],1.55 mM/L (2×) and 1.54 mM/L and 1.77 mM/L and 1.58 mM/L and 1.2 mM/L
same,"Plasma ionised Ca++, Treatment (24 hours), Average","[4]; 24 hours, average of 6",1.53 mM/L
